Like-named read-outs stand apart in the source and are kept apart here. Where a SMILES comes first, the peptide text is derived from it. Bridges are numbered along the chain shown (N, C = ends). [ ]: non-standard residue; d: D form.
Key:
L. monocytogenes AgrC [1] = biological target: T1, L. monocytogenes AgrC (Listeria monocytogenes serovar 1/2a, UniProt Q8YAR5); test: Fluorescence (agr-GFP) reporter agonism assay, ΔagrD reporter strain; type: cell-based; set-up: Emax: dose or concentration left out as unconfirmed
Summary of the method: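 L. monocytogenes EGD-e strains carrying agr promoter-GFP plasmid: ΔagrD for agonism (normalized to 1 μM AIP), wild type for antagonism (normalized to DMSO). Peptides in 1% DMSO with diluted overnight culture in BHI, 24 h at 37 °C shaking; GFP fluorescence corrected for background and OD600, four-parameter dose-response fit.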

[2] = tested on: L. monocytogenes EGD-e ΔagrD; test: Crystal violet biofilm assay, ΔagrD strain (agonists); type: cell-based, Listeria monocytogenes; details: for biofilm production compared to vehicle controls: 10 μM, ΔagrD bacteria
Protocol: (§1) Biofilm assay protocol. Biofilms assays were adapted from previous reports and protocols.^51-52 Overnight cultures of L. monocytogenes EGD-e and ΔagrD were grown in BHI, then diluted 1:100 in LB. For single-point assays, 2 μL of agonists or antagonists at an appropriate concentration were added to wells in a clear 96-well microtiter plates. For dose-response assays, a stock solution of the select peptide were serially diluted in DMSO, then 2 μL of each concentration were transferred to the appropriate wells. Then, 198 μL of bacteria were added to their respective wells, using ΔagrD for agonist wells and EGD-e for antagonist wells. In each plate, additional vehicle controls for baseline biofilm formation of EGD-e and ΔagrD strains (2 μL of DMSO) were included, as well as a media control (200 μL of LB). Plates were incubated at room temperature for 24 hours statically, at which point plates were inverted over a glass waste container and gently shook to remove planktonic bacteria. The wells were gently washed with 200 μL of PBS twice, inverting again over the waste container to remove liquid. Then, 200 μL of 0.1% crystal violet solution (in water) were added to each well and incubated for 30 minutes. The wells were then washed with 200 μL of PBS three more times and left to air dry for 15 minutes. Remaining crystal violet was solubilized by the addition of 100 μL of 95% ethanol in water solution, pipetting up and down to mix, incubated for 10 minutes, then absorbance was read at 595 nm. Absorbance data was processed by normalizing to the EGD-e vehicle control (100%) and the LB media control (0%). Non-linear regression curves were fitted to the data sets in GraphPad Prism 7 by using variable slope (four-parameter) dose-response analysis to obtain potency, efficacy, and statistical information about the activity of tested peptides. Each well was tested with four technical replicates and three biological replicates. All data derived from crystal violet biofilm assays are represented with data points signifying the mean and error bars signifying the standard deviation from all replicates.

L. monocytogenes EGD-e = type: cell-based, Listeria monocytogenes
Protocol: as §1, with “All data derived from crystal violet biofilm assays are represented with data points signifying the mean and error bars signifying the standard deviation from all replicates.” left out

L. monocytogenes AgrC [3] = biological target: T1, L. monocytogenes AgrC; test: Fluorescence (agr-GFP) reporter antagonism assay, wild-type EGD-e reporter strain; type: cell-based
From the text: Construction of Listeria agr Reporter Strains. A gene block was designed and purchased from Integrated DNA Technologies to contain an EagI recognition site, the PII promoter of the agr system, the 3′ UTR of hly, super folder GFP, and a SaII recognition site. The gene block was digested with EagI and SaII, cloned into an EagI/SaII-cut pAM401 plasmid resulting in the plasmid pAM401-KW1, and then transformed into E. coli XL1-Blue competent cells. The insertion into pAM401 was confirmed using Kapa polymerase and primers DAP337 and DAP338, and additional confirmation via commercial sequencing. Purified plasmid was transformed into the conjugative E. coli S17 strain, which was used to conjugate to EGD-e and EGD-e ΔagrD to generate the agr-GFP reporter strains EGD-e:pAM401-KW1 and EGD-e ΔagrD:pAM401-KW1. Conjugation was verified using primers DAP337 and DAP338.
Fluorescence reporter assay protocol. For QS (agr) reporter assays, peptide stock solutions in DMSO (1 mM) were serially diluted in DMSO, and 2 μL of solution was added to each well in a black 96-well plate (polystyrene microtiter plate, Costar). Agonism assays utilized the ΔagrD reporter strain, with 2 μL of 100 μM AIP (final concentration 1 μM) as a positive control and 2 μL of DMSO as a negative control. Antagonism assays utilized the EGD-e reporter strain, with 2 μL of DMSO as a positive control. In both assays, wells containing only BHI media served as negative controls for normalization. An overnight culture of bacteria was diluted 1:50 in fresh BHI, then 198 μL were transferred to each well (excluding the media control wells). Plates were then incubated at 37° C. for 24 hours with shaking at 200 rpm. Fluorescence of GFP (excitation at 500 nm, emission at 540 nm) and OD600 of each well was measured using BioTek Synergy 2 plate reader. Measurements were processed by subtracting background fluorescence (BHI media), correcting by OD600, and the normalizing using the 1 μM AIP or the DMSO control for the agonism and antagonism assays, respectively. Non-linear regression curves were fitted to the data sets in GraphPad Prism 7 by using variable slope (four-parameter) dose-response analysis to obtain potency, efficacy, and statistical information about the activity of tested peptides. Each peptide was tested with three technical replicates and three biological replicates. All data derived from fluorescent reporter strains are represented with data points signifying the mean and error bars signifying the standard deviation from all replicates.
Preparation and Validation of Listeria agr Reporter Strains. […] However, adding exogenous AIP to the ΔagrD reporter results in an increase of fluorescence, indicating agr activity has been restored.

[4] = read-out: Max Activation Observed

T1 sequence (Q8YAR5 entry or part of it): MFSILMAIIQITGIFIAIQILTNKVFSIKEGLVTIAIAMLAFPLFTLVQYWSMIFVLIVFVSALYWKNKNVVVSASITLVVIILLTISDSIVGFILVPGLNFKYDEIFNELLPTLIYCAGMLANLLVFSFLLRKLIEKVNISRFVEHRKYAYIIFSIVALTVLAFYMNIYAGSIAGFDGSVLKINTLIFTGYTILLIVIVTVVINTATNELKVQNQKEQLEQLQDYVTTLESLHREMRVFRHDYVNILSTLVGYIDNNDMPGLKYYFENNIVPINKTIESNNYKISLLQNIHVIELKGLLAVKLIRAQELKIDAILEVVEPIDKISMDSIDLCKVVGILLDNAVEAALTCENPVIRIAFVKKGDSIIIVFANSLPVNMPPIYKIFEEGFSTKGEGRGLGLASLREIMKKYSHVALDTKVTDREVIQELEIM

Compound	increase in potency (L. monocytogenes AgrC [1]; agonism, relative to native AIP)	Emax (L. monocytogenes AgrC [1]; [4]) [%]	agonism activity (in words) (L. monocytogenes AgrC [1]; ΔagrD reporter)	biofilm formation of ΔagrD strain (FIG. 9A) [2]	biofilm production compared to vehicle controls [2]	biofilm of wild-type (WT) strain (FIG. 9B) (L. monocytogenes EGD-e)	wild-type biofilm formation reduced by (L. monocytogenes EGD-e; 100 μM) [%]	IC50 (L. monocytogenes EGD-e; dose-response, wild-type biofilm, read-out: IC50 (biofilm formation)) [nM]	antagonism activity (in words) (L. monocytogenes AgrC [3])	Emax (L. monocytogenes AgrC [1]; read-out: Max Activation) [%]	Emax at 1 µM (L. monocytogenes AgrC [1]; read-out: Max Activation) [%]
CSCC[C@H]1NC(=O)[C@H](Cc2ccccc2)NC(=O)[C@@H](NC(=O)[C@H](C)N)CSC(=O)[C@H](C(C)C)NC(=O)[C@H](Cc2ccccc2)NC1=O [AIP M4dM, A-(C-F-dM-F-V)] (H-ACF[dM]FV; thioester 2-C; N-terminus assumed)	three-fold	111	no effect on agonism	increase biofilm formation	doubled						
CSCC[C@H]1NC(=O)[C@H](Cc2ccccc2)NC(=O)[C@H](NC(=O)[C@@H](N)CCCCN)CSC(=O)[C@H](C(C)C)NC(=O)[C@H](Cc2ccccc2)NC1=O [A1K/C2dC/M4dM, K-(dC-F-dM-F-V)] (H-K[dC]F[dM]FV; thioester 2-C)		8.1				reduces biofilm	90	1860	inhibiting wild-type activity to levels similar to basal ΔagrD activity		
CSCC[C@@H]1NC(=O)[C@H](Cc2ccccc2)NC(=O)[C@@H](NC(=O)[C@H](C)N)CSC(=O)[C@H](C(C)C)NC(=O)[C@H](Cc2ccccc2)NC1=O [AIP, A-(C-F-M-F-V), reference compound] (H-ACFMFV; thioester 2-C; N-terminus assumed)		114		increase biofilm formation	doubled					114	114

From patent US12116424B2, “Compounds and compositions for modulating Listeria virulence” (priority 2021, dated 2024)
